We go through 6 compounds from ChEMBL document CHEMBL1140755, “Interaction of aliphatic cap group in inhibition of histone deacetylases by cyclic tetrapeptides” (Bioorg Med Chem, 2008).

The target in one assay is Histone deacetylase 1 (Homo sapiens, UniProt Q13547). The experiment in a line: Inhibition of HDAC1 expressed in 293T cells. Format: cell-based.
The target of another assay is Histone deacetylase 4 (Homo sapiens, UniProt P56524). The experiment in a line: Inhibition of HDAC4 expressed in 293T cells. Type of assay: cell-based.
Assay [1] concerns the target T1, Protein deacetylase HDAC6 (Homo sapiens, UniProt Q9UBN7).
T1 sequence (Q9UBN7 whole entry): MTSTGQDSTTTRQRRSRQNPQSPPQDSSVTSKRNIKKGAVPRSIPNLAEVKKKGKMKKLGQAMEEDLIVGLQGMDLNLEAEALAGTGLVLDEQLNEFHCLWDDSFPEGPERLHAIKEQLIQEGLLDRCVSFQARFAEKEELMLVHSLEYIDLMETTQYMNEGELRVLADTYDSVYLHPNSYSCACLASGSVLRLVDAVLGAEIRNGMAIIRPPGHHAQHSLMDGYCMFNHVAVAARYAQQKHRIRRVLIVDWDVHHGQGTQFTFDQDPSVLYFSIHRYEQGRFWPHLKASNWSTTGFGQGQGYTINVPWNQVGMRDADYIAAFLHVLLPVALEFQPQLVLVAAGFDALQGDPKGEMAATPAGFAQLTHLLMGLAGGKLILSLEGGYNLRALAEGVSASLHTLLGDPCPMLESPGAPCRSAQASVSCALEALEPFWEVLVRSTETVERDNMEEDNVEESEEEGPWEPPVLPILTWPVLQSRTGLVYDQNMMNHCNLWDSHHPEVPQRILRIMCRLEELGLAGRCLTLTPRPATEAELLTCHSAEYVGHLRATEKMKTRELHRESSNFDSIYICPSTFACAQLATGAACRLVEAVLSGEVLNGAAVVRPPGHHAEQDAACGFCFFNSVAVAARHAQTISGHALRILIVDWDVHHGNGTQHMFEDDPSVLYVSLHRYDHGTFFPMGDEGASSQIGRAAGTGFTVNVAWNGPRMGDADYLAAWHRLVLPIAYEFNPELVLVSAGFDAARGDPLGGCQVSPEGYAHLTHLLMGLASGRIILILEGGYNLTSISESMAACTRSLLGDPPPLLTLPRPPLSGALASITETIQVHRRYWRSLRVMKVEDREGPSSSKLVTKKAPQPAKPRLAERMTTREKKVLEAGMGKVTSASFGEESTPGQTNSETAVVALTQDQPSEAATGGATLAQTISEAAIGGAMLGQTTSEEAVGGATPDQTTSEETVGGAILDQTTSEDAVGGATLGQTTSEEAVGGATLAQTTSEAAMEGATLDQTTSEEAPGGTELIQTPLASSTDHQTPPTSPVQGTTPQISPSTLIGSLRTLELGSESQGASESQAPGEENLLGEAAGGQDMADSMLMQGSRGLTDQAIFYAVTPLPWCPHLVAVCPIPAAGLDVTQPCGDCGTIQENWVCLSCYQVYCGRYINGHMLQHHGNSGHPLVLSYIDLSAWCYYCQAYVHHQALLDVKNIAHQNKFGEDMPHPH
As to the kind of experiment: Inhibition of HDAC6 expressed in 293T cells. Format: cell-based.

Assay [2] is described as follows: Selectivity of IC50 for HDAC6 to IC50 for HDAC1.

Structures are written as SMILES. Non-standard residues stand in square brackets, D forms with d. Residues, ends and D or L forms follow the SMILES beside them. Ahp(7-SS(2-pyridyl)) = N[C@@H](CCCCCSSc1ccccn1)C(=O)O; Aib = CC(C)(N)C(=O)O

Histone deacetylase 1, sequence (Q13547 whole entry): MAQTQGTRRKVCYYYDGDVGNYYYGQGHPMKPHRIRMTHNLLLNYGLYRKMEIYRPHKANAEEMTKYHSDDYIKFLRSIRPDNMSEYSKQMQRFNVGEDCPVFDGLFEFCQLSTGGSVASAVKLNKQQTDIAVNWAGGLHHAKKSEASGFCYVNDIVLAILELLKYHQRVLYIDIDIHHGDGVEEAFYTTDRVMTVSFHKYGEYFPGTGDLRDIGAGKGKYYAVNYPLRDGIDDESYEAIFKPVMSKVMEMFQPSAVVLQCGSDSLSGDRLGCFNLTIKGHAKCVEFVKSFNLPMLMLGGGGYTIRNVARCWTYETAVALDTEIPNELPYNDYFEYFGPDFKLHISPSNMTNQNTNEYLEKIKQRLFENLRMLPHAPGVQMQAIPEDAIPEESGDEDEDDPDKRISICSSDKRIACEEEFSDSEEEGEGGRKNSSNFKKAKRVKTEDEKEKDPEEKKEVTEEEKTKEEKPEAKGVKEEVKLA
Histone deacetylase 4, sequence (P56524 whole entry): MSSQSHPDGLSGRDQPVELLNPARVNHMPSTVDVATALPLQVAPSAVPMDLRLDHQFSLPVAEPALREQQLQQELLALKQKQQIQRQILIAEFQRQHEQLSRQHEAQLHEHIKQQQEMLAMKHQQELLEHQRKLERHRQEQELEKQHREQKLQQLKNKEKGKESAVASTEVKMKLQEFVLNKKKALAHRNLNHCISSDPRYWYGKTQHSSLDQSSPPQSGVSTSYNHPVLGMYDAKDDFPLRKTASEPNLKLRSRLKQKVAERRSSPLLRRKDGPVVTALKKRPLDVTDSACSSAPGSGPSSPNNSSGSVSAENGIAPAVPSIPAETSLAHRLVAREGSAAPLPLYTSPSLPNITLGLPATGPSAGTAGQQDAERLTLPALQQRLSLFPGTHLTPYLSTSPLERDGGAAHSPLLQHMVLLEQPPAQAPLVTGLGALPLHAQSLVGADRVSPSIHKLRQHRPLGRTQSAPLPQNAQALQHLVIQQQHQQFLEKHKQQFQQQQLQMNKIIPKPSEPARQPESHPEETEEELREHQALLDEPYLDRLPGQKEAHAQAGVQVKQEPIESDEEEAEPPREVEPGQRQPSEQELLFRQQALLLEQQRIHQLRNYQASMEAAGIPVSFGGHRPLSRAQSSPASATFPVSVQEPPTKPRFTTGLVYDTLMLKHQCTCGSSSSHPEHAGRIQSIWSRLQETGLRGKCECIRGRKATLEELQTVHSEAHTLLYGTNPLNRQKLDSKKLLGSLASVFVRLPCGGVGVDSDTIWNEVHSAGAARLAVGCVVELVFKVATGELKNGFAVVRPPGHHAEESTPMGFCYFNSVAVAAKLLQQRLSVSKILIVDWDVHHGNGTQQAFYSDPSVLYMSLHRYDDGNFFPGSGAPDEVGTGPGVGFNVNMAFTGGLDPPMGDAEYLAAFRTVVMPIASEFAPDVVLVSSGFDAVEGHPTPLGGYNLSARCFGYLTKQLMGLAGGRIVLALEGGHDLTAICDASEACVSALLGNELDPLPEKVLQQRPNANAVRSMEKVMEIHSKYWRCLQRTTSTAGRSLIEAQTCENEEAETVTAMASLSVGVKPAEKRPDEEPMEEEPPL

One may read the IC50 as the concentration at which inhibition is half-maximal. Read a high IC50 as weaker potency in that assay. As to `CC[C@H](C)[C@@H]1NC(=O)C(C)(C)NC(=O)[C@H](CCCCCSSc2ccccn2)NC(=O)[C@H]2CCCN2C1=O`, the results for the IC50 (against Histone deacetylase 1; at Histone deacetylase 4; in assay [1]) were 38 nM, 23 nM and 310 nM, respectively.

As to `C[C@@H]1NC(=O)C(C)(C)NC(=O)[C@H](CCCCCSSc2ccccn2)NC(=O)[C@H]2CCCN2C1=O` (cyclo(A[dP][Ahp(7-SS(2-pyridyl))][Aib])), the IC50 against Histone deacetylase 1 was found to be 94 nM; against Histone deacetylase 4 it was 52 nM; in assay [1] it was 430 nM.

`CCCC[C@@H]1NC(=O)C(C)(C)NC(=O)[C@H](CCCCCSSc2ccccn2)NC(=O)[C@H]2CCCN2C1=O`: the concentration for half-maximal inhibition (IC50) against Histone deacetylase 1 came to 38 nM; at Histone deacetylase 4 it was 24 nM; in assay [1], 280 nM.

As to `CC1(C)NC(=O)[C@H](CCCCCSSc2ccccn2)NC(=O)[C@H]2CCCN2C(=O)[C@H](Cc2ccccc2)NC1=O` (cyclo([Aib]F[dP][Ahp(7-SS(2-pyridyl))])), the half-maximal inhibitory concentration (IC50) at Histone deacetylase 1 was found to be 39 nM; at Histone deacetylase 4 it was 18 nM; in assay [1], 404 nM. In addition, the Ratio IC50 in assay [2] turned out to be 10.3.

On to `CC(C)C[C@@H]1NC(=O)C(C)(C)NC(=O)[C@H](CCCCCSSc2ccccn2)NC(=O)[C@H]2CCCN2C1=O`, for which the IC50 turned out to be 58 nM at Histone deacetylase 1, 33 nM at Histone deacetylase 4 and 230 nM in assay [1].

In the case of `O=C1N[C@@H]2CCCCCCCCCCCC[C@H](NC2=O)C(=O)N2CCC[C@@H]2C(=O)N[C@H]1CCCCCSSc1ccccn1`, the IC50 on Histone deacetylase 1 was found to be 35 nM; against Histone deacetylase 4, 20 nM; in assay [1], 4900 nM. In addition, in assay [2], the Ratio IC50 was 140.
